Measurements as given in PMC9785921, “Evaluation of Chiral Organosulfur Compounds on Their Activity against the Malaria Parasite Plasmodium falciparum” (Tropical Medicine and Infectious Disease, 2022).
Read-outs that look alike come from different tables or passages of the source. Blank lines part the entries; values can stand above or below the compound they belong to.

Key:
P. falciparum Dd2 strain = assay: Malstat assay, asexual blood stages, CQ-resistant strain Dd2; format: cell-based; conditions: Plasmodium falciparum, read-out: IC50 (µM) CQ-Resistant Strain Dd2
Description: (§1) Three P. falciparum strains were used for compound testing; a strain sensitive to chloroquine (CQ) 3D7, CQ-resistant strain Dd2 and P. falciparum gametocyte producing NF54 strain. The 3D7 and Dd2 strains were used to investigate the effect of the compounds on asexual blood stage replication. They were cultured in RPMI 1640/HEPES medium (Gibco, Thermo Scientific, Waltham, MA, USA) containing 10 µg/mL gentamicin (Gibco Thermo Scientific, Waltham, MA, USA,), 50 µg/mL hypoxanthine (Sigma-Aldrich, St. Louis, MO, USA), 0.5% v/v Albumax II (Gibco, Thermo Scientific, Waltham, MA, USA) and 5% hematocrit. Cultures were maintained at 37 °C using a gas mixture containing 5% CO2, 5% O2 and 90% N2. […] To obtain highly synchronized cultures, parasite cultures consisting mainly of ring stages were centrifuged, the pellet was resuspended in 10 mL of 5% w/v sorbitol/ddH20 and incubated for 10 min at room temperature. After washing the cells with RPMI to remove residual sorbitol, they were again cultivated, as described above. Erythrocyte concentrate and serum samples were obtained from the Department of Transfusion Medicine, University Hospital Aachen, Germany. The serum samples were mixed and pooled and donors were kept anonymous. The work with blood components from humans was approved by the Ethics commission of the RWTH University Hospital (EK 007/13).
(§2) The antiplasmodial effect of the compounds on P. falciparum asexual blood stage development was carried out using the Malstat assay, as described previously. Compounds dissolved in dimethyl sulfoxide (DMSO) were added to 1% ring stage P. falciparum 3D7 and Dd2 cultures (200 µL/well) in a 96-well plate in triplicate at final concentrations ranging from 100 µM to 0.78 µM. […] CQ at concentrations ranging from 500 nM to 4 nM was used as an internal control in the experiments, while parasites treated with 0.5% v/v DMSO served as the negative control. The parasites were cultured with the compounds for 72 h at 37 °C in the presence of the following gas combination: 5% O2, 5% CO2, and 90% N2. Afterwards, 20 µL of the incubated culture was removed and 100 µL of Malstat reagent (0.1% v/v Triton X-100, 1 g of L-lactate, 0.33 g Tris and 33 mg of 3-acetylpyridine adenine dinucleotide in 100 mL of distilled water, pH 9.0) was added in a new 96-well microtiter plate. Next, 20 µL mixture of NBT/Diaphorase (1:1; 1 mg/mL stock each) was added to the Malstat reaction and the parasite lactate dehydrogenase activity was then quantified by measuring the optical densities at 630 nm. IC50 values were then determined from variable-slope sigmoidal dose-response graphs using the GraphPad Prism program version 5 (GraphPad Software Inc., La Jolla, San Diego, CA, USA).

P. falciparum 3D7 strain = assay: Malstat assay, asexual blood stages, CQ-sensitive strain 3D7; format: cell-based; conditions: Plasmodium falciparum; for IC50: read-out: IC50 (µM) CQ-Sensitive Strain 3D7; for IC90: 90% inhibitory concentration estimated from the IC50
Description: as §1, §2

[1] = test system: non-infected erythrocytes; assay: Hemolytic assay; format: cell-based, human; conditions: IC50 and IC90 concentrations, 48 h, 37 °C, compared with 0.5% v/v DMSO
Description: Since the malaria parasite replicates in the red blood cell, we determined if the compounds have an effect on non-infected erythrocytes using hemolytic assays. To this end, 1 mL of washed uninfected erythrocytes at 5% hematocrit in regular medium was plated in triplicate in a 96-well plate (200 µL/well) in the presence of compounds at IC50 and IC90 concentrations. Erythrocytes treated with 0.15% w/v saponin were used as lysis control and 0.5% v/v DMSO was used as the negative control. Following 48 h of incubation at 37 °C, the plate was centrifuged at 500× g for 2 min and 100 µL of the supernatant was transferred to another plate and the absorbance was measured at 550 nm with a spectrophotometer.
(§3) Figure 4 Hemolytic and cytotoxic effect of compounds. (a) Hemolytic effect of compounds. […] The absorbance of free hemoglobin was measured at OD550 nm in the supernatant and normalized to 0.15% w/v saponin (set to 100%), which served as positive control in the experiments. 0.5% v/v DMSO was used as negative control. (b) Cytotoxicity effect of compounds on Hela cells. The cells were plated in 96-well microtiter plates and cultured overnight at 37 °C. The following day, the old medium was removed and 100 µL of fresh medium containing serially diluted compounds in corresponding wells at final concentrations ranging from 100 µM to 0.8 µM was added and the culture was incubated for 72 h. After incubation, the medium was replaced by 100 µL fresh drug-free medium and 20 µL MTT (5 mg/mL) was added in each well and incubated for 3 h at 37 °C. After 3 h, the MTT preparation was then removed from each well and 100 µL solubilization solution was added. Plates were then placed on a rotator at about 500 rpm at RT until the formazan precipitate was completely resuspended and the OD was measured at 450 nm. The data are representative of three independent experiments.

[2] = MTT cytotoxicity assay, Hela cells; format: cell-based; conditions: human, Hela cells (human cervical cancer cell line); for viability at 72 h: about 25 µM
Description: The MTT [3-(4,5-dimethylthiazol-2-yl)-2,5-diphenyltetrazolium bromide] assay was performed using the human cervical cancer cell (Hela) line and the hematologic malignancy human erythroleukemia (HEL) cell line to determine if the compounds were toxic (loss of viability) against human cells. MTT is taken up by viable cells and converted by mitochondrial dehydrogenases to a violet formazan product that cannot diffuse through cell membranes, and therefore crystallizes in viable cells. The adherent Hela cells were plated in 96-well microtiter plates and cultured at 37 °C overnight. Compounds were added to the cultures in different serial concentrations in triplicate the next day, and the cells were incubated for 72 h. DMSO was used as the negative control at a final concentration of 0.5% v/v, and a concentration of 15% v/v DMSO which is toxic was added as the positive control. After 72 h of drug treatment, medium-containing drug was replaced with 100 µL fresh drug-free medium. Then, 20 µL MTT (5 mg/mL) was added to each well and incubated for 3 h at 37 °C. The medium was subsequently removed and 100 µL solubilization solution (5% w/v SDS, 0.1 M HCl in 100% vol. DMSO) was added and incubated for 30 min under rotation at room temperature to solubilize the formazan crystals.
For both cell lines, the optical density (OD) of the solution was measured at 550 nm. The OD-values of cultures treated with compounds were normalized to the OD-values of 0.5% v/v DMSO control (set to 100% viability for Hela or 1 for HEL cell line). IC50 values were calculated from MTT assays using Graphpad Prism (V9).
as §3

[3] = test system: P. falciparum NF54 gametocytes; assay: Gametocyte toxicity test; format: cell-based, Plasmodium falciparum; conditions: 48 h treatment, then 7 d drug-free; for reduction in stage IV and V gametocyte numbers: compound at IC90 concentration
Description: as §1
P. falciparum NF54 parasites were cultured at high parasitemia to induce gametocyte formation. Once stage II gametocytes appeared, 1 mL of culture was aliquoted in triplicate in a 24-well plate with compounds at the respective IC50 and IC90 concentrations that was determined from Malstat assay. The gametocytes were again cultivated for 9 d with the daily replacement of medium. For the first 48 h of cultivation, the gametocytes were treated with test compounds, and subsequently compound free medium was used. On day 9, blood smears were prepared and stained with Giemsa and the gametocytemia was determined by counting the numbers of gametocytes stages IV and V in a total number of 1000 erythrocytes.
Figure 3 Effect of organosulfur compounds on gametocyte development. Cultures rich in stage II gametocyte were incubated with compounds at IC50 and IC90 concentrations for 2 d, and again cultivated for another 7 d with daily replacement of medium. The numbers of stage IV and V gametocytes were determined from Giemsa smears and normalized to 0.5% v/v DMSO treatment which served as negative control (set to 100%). Epoxomicin (Epoxo) at 60 nM served as positive control.

[4] = 3D7, ring stage parasites, 72 h, Malstat (plasmodial LDH)

SMILES: CCN(CC)CCCC(C)Nc1ccnc2cc(Cl)ccc12 (stereo not drawn) [Chloroquine, reference compound]
IC50 (P. falciparum Dd2 strain; DD2, 72 h): 0.14 ± 0.063 µM
IC50 (P. falciparum 3D7 strain; 3D7, 72 h): 0.02 ± 0.004 µM

SMILES: CCOC(=O)C1=C(c2cccs2)N=S(=O)(N2CCCCCC2)c2c(C)cccc21 (stereo not drawn) [Compound 7]
IC50 (P. falciparum 3D7 strain; [4]): 35.8 ± 5.11 µM

SMILES: Cc1cccc2c1S(=O)(N1CCCCCC1)=NC(c1ccc(Br)cc1)=C2 (stereo not drawn) [Compound 8]
IC50 (P. falciparum 3D7 strain; [4]): 12.5 ± 3.27 µM

SMILES: CC(C)(C)c1ccc2c(c1)C=C(c1ccccc1)N=S2(=O)N1CCCCCC1 (stereo not drawn) [Compound 9]
IC50 (P. falciparum Dd2 strain; DD2, ring stage parasites, 72 h, Malstat): 6.5 ± 0.87 µM
hemolytic effect [1]: no hemolytic effect
viability at 72 h, 50 µM [2]: > 60%
viability at 72 h [2]: > 90%
IC50 (P. falciparum 3D7 strain; [4]): 3.3 ± 1.56 µM
IC90 (P. falciparum 3D7 strain; 3D7): 29.7 µM
reduction of mature gametocyte numbers ([3]; compound at IC50 concentration): about 50%

SMILES: CCOC(=O)C1=C(C)N=S(=O)(N2CCCCCC2)c2ccc(C)cc21 (stereo not drawn) [Compound 11]
IC50 (P. falciparum 3D7 strain; [4]): 12 ± 4.28 µM

Continued, in another order:

IC50 (P. falciparum 3D7 strain; [4]): 3.8 ± 0.66 µM
IC90 (P. falciparum 3D7 strain; 3D7): 34.2 µM
SMILES: CCOC(=O)C1=C(C)N=S2(=NC(c3ccccc3)=CC(c3ccccc3)=C2)c2ccccc21 (stereo not drawn) [Compound 1]
hemolytic effect [1]: no hemolytic effect
viability at 72 h, 50 µM [2]: > 60%
viability at 72 h [2]: > 90%
reduction of mature gametocyte numbers (in words) ([3]; compound at IC50 concentration): only minor reduction
reduction in stage IV and V gametocyte numbers [3]: very high reduction

IC50 (P. falciparum 3D7 strain; [4]): 3.12 ± 0.58 µM
IC90 (P. falciparum 3D7 strain; 3D7): 27.9 µM
SMILES: CCOC(=O)C1=C(C)N=S2(=NC(c3ccccc3)=CC(c3ccc(Cl)cc3)=C2)c2ccccc21 (stereo not drawn) [Compound 2]
hemolytic effect [1]: no hemolytic effect
viability at 72 h, 50 µM [2]: > 60%
viability at 72 h [2]: > 90%
reduction of mature gametocyte numbers (in words) ([3]; compound at IC50 concentration): only minor reduction
reduction in stage IV and V gametocyte numbers [3]: very high reduction

IC50 (P. falciparum 3D7 strain; [4]): 22.1 ± 1.06 µM
SMILES: O=S1(c2ccc(Br)cc2)=NC(c2ccccc2)=CC(c2ccc(Cl)cc2)=N1 (stereo not drawn) [Compound 3]

IC50 (P. falciparum 3D7 strain; [4]): 9.1 ± 2.59 µM
SMILES: CCOC(=O)C1=C(c2cccs2)N=S(=O)(N2CCCCCC2)c2c1cc1ccccc1c2Cl (stereo not drawn) [Compound 4]

IC50 (P. falciparum 3D7 strain; [4]): 10.6 ± 1.53 µM
SMILES: O=S1(N2CCCCCC2)=NC(c2ccc(Br)cc2)=Cc2ccccc21 (stereo not drawn) [Compound 6]

IC50 (P. falciparum 3D7 strain; [4]): 46.4 ± 2.67 µM
SMILES: O=S1(N2CCCCCC2)=NC(c2ccccc2)=Cc2ccccc21 (stereo not drawn) [Compound 10]
